Patent US10017765B2, “Inhibitors of CACNA1A/ALPHA1A subunit internal ribosomal entry site (IRES) and methods of treating spinocerebellar ataxia type 6” (THE UNIVERSITY OF CHICAGO, priority 2013, dated 2018)
Entries after “also recorded” stand apart in the source; their conditions may differ.

Legend:
CACNA1 A IRES pRCTF = test: Preliminary screening, pRCTF R-Luc/F-Luc bicistronic reporter in HEK293 cells; format: cell-based, human
PC12 cells = test: NGF-induced neurite outgrowth of transfected PC12 cells; format: cell-based, rat; conditions: NGF treatment

Row | Compound | activity of CACNA1A IRES pRCTF (CACNA1 A IRES pRCTF) | α1AWT-induced neurite outgrowth (PC12 cells; PC12 cells expressing full-length α1AWT-FLAG) | α1ACTWT-induced (enhanced) neurite outgrowth (PC12 cells; PC12 cells transfected with α1ACTWT-FLAG)
1 | COc1ccc(C[C@H]2NC[C@H](O)[C@H]2OC(C)=O)cc1 [anisomycin] | has the potential to inhibit |  | 
2 | ω-agatoxin |  | could not be blocked; also recorded: did not block | no effect
